Molecular target: GCN2 (Homo sapiens, UniProt Q9P2K8)
Assay: GCN2 enzymatic endpoint assay: phosphorylation of GFP-eIF2α measured by TR-FRET (Lanthascreen)
Type: biochemical
Settings: GCN2 biochemical IC50; 4 nM GCN2, 2 μM ATP, 80 nM GFP-eIF2α, 90 min RT; read-out: GCN2 activity
Protocol: The Enzymatic assay was run as an endpoint assay to quantify the activity of the serine/threonine GCN2 kinase by way of measuring phosphorylation of its natural substrate, eiF2α.
The enzymatic reaction was initiated by incubating with 2 μM ATP and 80 nM of GFP labeled eiF2a substrate at room temperature and then stopped after 90 minutes with EDTA. The amount of phosphorylated eIF2α is determined by TR-FRET (Lanthascreen). A terbium labeled antibody associates with the phosphorylated substrate resulting in an increased TR-FRET value. Activity was calculated as the ratio of the acceptor (fluorescein) signal at 520 nm wavelength to the donor (terbium) signal 495 nm. The amount of antibody that is bound to the tracer is directly proportional to the amount of phosphorylated substrate present, and in this manner, kinase activity can be detected and measured by an increase in the TR-FRET value.
Compound addition by D300
5 μL enzyme solution in assay buffer
5 μL substrate/ATP mixture in assay buffer
5 μL stop/detection mix in antibody dilution buffer

Chain of GCN2 (Q9P2K8 whole entry): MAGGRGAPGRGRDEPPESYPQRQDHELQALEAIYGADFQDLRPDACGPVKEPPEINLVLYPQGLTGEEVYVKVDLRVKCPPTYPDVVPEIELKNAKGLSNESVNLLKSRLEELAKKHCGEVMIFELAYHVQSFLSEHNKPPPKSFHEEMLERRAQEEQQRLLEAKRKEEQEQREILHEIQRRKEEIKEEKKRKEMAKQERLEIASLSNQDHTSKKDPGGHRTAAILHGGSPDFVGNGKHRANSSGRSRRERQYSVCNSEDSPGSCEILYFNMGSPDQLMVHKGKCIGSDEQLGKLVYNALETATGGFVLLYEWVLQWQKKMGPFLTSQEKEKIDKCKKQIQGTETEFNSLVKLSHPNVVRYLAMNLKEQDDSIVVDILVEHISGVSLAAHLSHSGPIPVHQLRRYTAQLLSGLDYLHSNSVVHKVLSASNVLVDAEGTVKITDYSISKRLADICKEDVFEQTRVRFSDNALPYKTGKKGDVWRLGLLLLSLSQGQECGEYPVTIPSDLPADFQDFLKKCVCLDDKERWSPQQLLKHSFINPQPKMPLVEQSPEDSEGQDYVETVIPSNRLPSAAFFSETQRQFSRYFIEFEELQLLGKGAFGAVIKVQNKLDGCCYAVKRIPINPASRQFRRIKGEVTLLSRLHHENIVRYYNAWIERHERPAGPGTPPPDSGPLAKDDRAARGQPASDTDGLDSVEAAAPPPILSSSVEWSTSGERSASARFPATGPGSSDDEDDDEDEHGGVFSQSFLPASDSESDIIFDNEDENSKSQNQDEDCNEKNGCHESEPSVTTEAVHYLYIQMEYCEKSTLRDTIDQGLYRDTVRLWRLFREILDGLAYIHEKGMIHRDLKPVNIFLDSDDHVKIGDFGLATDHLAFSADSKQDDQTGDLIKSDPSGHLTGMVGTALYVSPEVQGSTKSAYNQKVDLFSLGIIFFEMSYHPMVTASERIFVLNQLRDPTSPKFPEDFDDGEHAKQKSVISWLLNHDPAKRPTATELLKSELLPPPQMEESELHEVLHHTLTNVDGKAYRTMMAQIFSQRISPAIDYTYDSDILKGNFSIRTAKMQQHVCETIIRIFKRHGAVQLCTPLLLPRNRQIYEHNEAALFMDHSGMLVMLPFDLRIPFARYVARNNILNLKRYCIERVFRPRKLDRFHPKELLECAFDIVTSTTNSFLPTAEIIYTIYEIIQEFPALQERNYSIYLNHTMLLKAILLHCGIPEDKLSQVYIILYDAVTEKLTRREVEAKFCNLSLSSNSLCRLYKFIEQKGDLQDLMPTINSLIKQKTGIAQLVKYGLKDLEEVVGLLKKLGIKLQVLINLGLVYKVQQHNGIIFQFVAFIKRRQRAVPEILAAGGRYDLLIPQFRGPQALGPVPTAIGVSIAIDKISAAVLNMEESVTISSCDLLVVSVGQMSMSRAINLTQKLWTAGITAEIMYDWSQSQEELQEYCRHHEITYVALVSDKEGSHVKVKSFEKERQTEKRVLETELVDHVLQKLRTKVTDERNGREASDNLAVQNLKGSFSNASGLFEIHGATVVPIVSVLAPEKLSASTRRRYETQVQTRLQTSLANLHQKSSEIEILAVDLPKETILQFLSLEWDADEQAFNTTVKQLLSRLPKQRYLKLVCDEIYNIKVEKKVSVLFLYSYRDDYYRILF

**Q.** How did the IC50 turn out when `Cn1cnc2ccc(-n3nc(Br)c4cnc(N[C@@H]5CC[C@@](C)(O)C5)nc43)cc2c1=O` [Example 70, 6-(3-bromo-6-(((1R,3R)-3-hydroxy-3-methylcyclopentyl)amino)-1H-pyrazolo[3,4-d]pyrimidin-1-yl)-3-methylquinazolin-4(3H)-one] was run?
**A.** Its IC50 is under 25 nM.

**Q.** Which IC50 does the source give for `CNS(=O)(=O)[C@@H]1CC[C@@H](Nc2ncc3c(Br)nn(-c4ccc5ncccc5c4)c3n2)C1` (single isomer, unassigned) [Example 16] here?
**A.** The IC50 was 25 to 200 nM.

**Q.** With `CNC(=O)[C@]1(C)CC[C@@H](Nc2ncc3c(Br)nn(-c4ccc5nccnc5c4)c3n2)C1` (single isomer, unassigned) [Example 11] as the molecule, how does the IC50 read?
**A.** The IC50 was 25 to 200 nM.

**Q.** Which IC50 does the source give for `CNC(=O)[C@@H]1CC[C@@H](Nc2ncc3c(Br)nn(-c4ccc(-c5ncco5)cc4)c3n2)C1` [Example 10, (1R,3R)-3-((3-bromo-1-(4-(oxazol-2-yl)phenyl)-1H-pyrazolo[3,4-d]pyrimidin-6-yl)amino)-N-methylcyclopentane-1-carboxamide] here?
**A.** The IC50 was 25 to 200 nM.

Same assay, conditions: tested as described in Example 77; compound and/or hydrochloride, dihydrochloride or trifluoroacetic acid salt; read-out: IC 50 Activity

**Q.** Which IC50 does the source give for `CNC(=O)[C@]1(CC(F)(F)F)CC[C@@H](Nc2ncc3c(Br)nn(-c4ccc(-c5nnc(C)s5)cc4)c3n2)C1` here?
**A.** The IC50 was 25 to 200 nM.

**Q.** For `CNC(=O)[C@]1(C)CC[C@@H](Nc2ncc3c(Br)nn(-c4cc(C#N)cc(OCCOC)c4)c3n2)C1` [(1R,3R)-3-[[3-bromo-1-[3-cyano-5-(2-methoxyethoxy)phenyl]pyrazolo[3,4-d]pyrimidin-6-yl]amino]-N,1-dimethyl-cyclopentanecarboxamide], which IC50 is on record?
**A.** The IC50 was 25 to 200 nM.

**Q.** `CNC(=O)[C@]1(C)CC[C@@H](Nc2ncc3c(Br)nn(-c4ccc(-c5ncco5)c([C@H]5CCNC5)c4)c3n2)C1` [(1R,3R)-3-[[3-bromo-1-[4-oxazol-2-yl-3-[(3R)-pyrrolidin-3-yl]phenyl]pyrazolo[3,4-d]pyrimidin-6-yl]amino]-N,1-dimethyl-cyclopentane-carboxamide] was tested. Which IC50 did it give?
**A.** The IC50 was 25 to 200 nM.

**Q.** For `CNC(=O)[C@]1(C)CC[C@@H](Nc2ncc3c(Br)nn(-c4ccc5c(c4)COC5=O)c3n2)C1`, which IC50 is on record?
**A.** Its IC50 is 25 to 200 nM.

**Q.** How did the IC50 turn out when `C[C@]1(C(=O)N[C@@H]2CCOC2)C[C@H](Nc2ncc3c(Br)nn(-c4ccc5ncccc5c4)c3n2)C1` was run?
**A.** Its IC50 is 25 to 200 nM.

**Q.** With `CNC(=O)[C@@]1(COC)CC[C@@H](Nc2ncc3c(I)nn(-c4cc(F)c5ncccc5c4)c3n2)C1` [(1S,3R)-3-[[1-(8-fluoro-6-quinolyl)-3-iodo-pyrazolo[3,4-d]pyrimidin-6-yl]amino]-1-(methoxymethyl)-N-methyl-cyclopentane-carboxamide] as the molecule, how does the IC50 read?
**A.** The IC50 was 25 to 200 nM.

**Q.** For `CN(C)CCNC(=O)[C@@H]1CC[C@@H](Nc2ncc3c(Br)nn(-c4ccc5ncccc5c4)c3n2)C1` [(1R,3R)-3-((3-bromo-1-(quinolin-6-yl)-1H-pyrazolo[3,4-d]pyrimidin-6-yl)amino)-N-(2-(dimethylamino)ethyl)cyclopentane-1-carboxamide], which IC50 is on record?
**A.** Its IC50 is 25 to 200 nM.

**Q.** With `CNC(=O)[C@]1(C)CC[C@@H](Nc2ncc3c(Br)nn(-c4cc(F)cc(CO)c4)c3n2)C1` [(1R,3R)-3-[[3-bromo-1-[3-fluoro-5-(hydroxymethyl)phenyl]pyrazolo[3,4-d]pyrimidin-6-yl]amino]-N,1-dimethyl-cyclopentanecarboxamide] as the molecule, how does the IC50 read?
**A.** The IC50 was 25 to 200 nM.

**Q.** `CNC(=O)[C@]1(C)CC[C@@H](Nc2ncc3c(Br)nn(-c4ccc(-c5nnc(C(C)(C)C)o5)cc4)c3n2)C1` [(1R,3R)-3-[[3-bromo-1-[4-(5-tert-butyl-1,3,4-oxadiazol-2-yl)phenyl]pyrazolo[3,4-d]pyrimidin-6-yl]amino]-N,1-dimethyl-cyclopentane-carboxamide] was tested. Which IC50 did it give?
**A.** Its IC50 is 25 to 200 nM.

**Q.** For `CNC(=O)C1(C)CC[C@@H](Nc2ncc3c(Br)nn(-c4cc(OC(F)(F)F)cc(C(C)O)c4)c3n2)C1` (stereo partly drawn) [(3R)-3-[[3-bromo-1-[3-(1-hydroxyethyl)-5-(trifluoromethoxy)phenyl]pyrazolo [3,4-d]pyrimidin-6-yl]amino]-N,1-dimethyl-cyclopentanecarboxamide], which IC50 is on record?
**A.** Its IC50 is 25 to 200 nM.

**Q.** With `CNC(=O)C1(CCS(C)(=O)=O)CC[C@@H](Nc2ncc3c(Br)nn(-c4ccc(-c5nnc(C)s5)c(CCC#N)c4)c3n2)C1` (stereo partly drawn) as the molecule, how does the IC50 read?
**A.** Its IC50 is 25 to 200 nM.

**Q.** How did the IC50 turn out when `N#Cc1cc(-n2nc(Br)c3cnc(N[C@@H]4CC[C@@H](C(=O)N5CCCC5)C4)nc32)cc2cccnc12` [6-(3-bromo-6-(((1R,3R)-3-(pyrrolidine-1-carbonyl)cyclopentyl)amino)-1H-pyrazolo [3,4-d]pyrimidin-1-yl)quinoline-8-carbonitrile] was run?
**A.** The IC50 was 25 to 200 nM.

**Q.** Which IC50 does the source give for `CNC(=O)[C@]1(C)CC[C@@H](Nc2ncc3c(Br)nn(-c4ccc(-c5cnon5)cc4)c3n2)C1` [(1R,3R)-3-[[3-bromo-1-[4-(1,2,5-oxadiazol-3-yl)phenyl]pyrazolo[3,4-d]pyrimidin-6-yl]amino]-N,1-dimethyl-cyclopentane-carboxamide] here?
**A.** Its IC50 is 25 to 200 nM.

**Q.** For `CNC(=O)[C@]1(C)CC[C@@H](Nc2ncc3c(Br)nn(-c4cc(Cl)cc(C(CN)OC)c4)c3n2)C1` (stereo partly drawn) [(1R,3R)-3-[[1-[3-(2-amino-1-methoxy-ethyl)-5-chloro-phenyl]-3-bromo-pyrazolo[3,4-d]pyrimidin-6-yl]amino]-N,1-dimethyl-cyclopentanecarboxamide; 2,2,2-trifluoroacetic acid], which IC50 is on record?
**A.** Its IC50 is 25 to 200 nM.

**Q.** For `NC(=O)C1(NC(=O)[C@@H]2CC[C@@H](Nc3ncc4c(Br)nn(-c5cc(F)c6ncccc6c5)c4n3)C2)CCC1` [(1R,3R)-3-[[3-bromo-1-(8-fluoro-6-quinolyl)pyrazolo[3,4-d]pyrimidin-6-yl]amino]-N-(1-carbamoylcyclobutyl)cyclopentane-carboxamide], which IC50 is on record?
**A.** Its IC50 is 25 to 200 nM.

**Q.** How did the IC50 turn out when `OC1CC(Nc2ncc3c(Br)nn(-c4cc(F)c5ncccc5c4)c3n2)C1` (stereo not drawn) [3-[[3-bromo-1-(8-fluoro-6-quinolyl)pyrazolo[3,4-d]pyrimidin-6-yl]amino] cyclobutanol] was run?
**A.** Its IC50 is 25 to 200 nM.

**Q.** How did the IC50 turn out when `CNC(=O)[C@]1(C)CC[C@@H](Nc2ncc3c(Br)nn(-c4cc(C#N)cc(C5CNC5)c4)c3n2)C1` [(1R,3R)-3-[[1-[3-(azetidin-3-yl)-5-cyano-phenyl]-3-bromo-pyrazolo[3,4-d]pyrimidin-6-yl]amino]-N,1-dimethyl-cyclopentane-carboxamide] was run?
**A.** The IC50 was 25 to 200 nM.

**Q.** With `CNC(=O)[C@]1(C)CC[C@@H](Nc2ncc3c(Br)nn(-c4cc(C(C)(C)O)c5ncccc5c4)c3n2)C1` [(1R,3R)-3-[[3-bromo-1-[8-(1-hydroxy-1-methyl-ethyl)-6-quinolyl]pyrazolo[3,4-d]pyrimidin-6-yl]amino]-N,1-dimethyl-cyclopentanecarboxamide] as the molecule, how does the IC50 read?
**A.** The IC50 was 25 to 200 nM.

**Q.** With `O=C(NCCO)[C@@H]1CC[C@@H](Nc2ncc3c(Br)nn(-c4ccc5ncccc5c4)c3n2)C1` [(1R,3R)-3-((3-bromo-1-(quinolin-6-yl)-1H-pyrazolo[3,4-d]pyrimidin-6-yl)amino)-N-(2-hydroxyethyl)cyclopentane-1-carboxamide] as the molecule, how does the IC50 read?
**A.** Its IC50 is 25 to 200 nM.

**Q.** For `CNC(=O)[C@]1(C)CC[C@@H](Nc2ncc3c(Br)nn(-c4cc(F)cc([C@H](C)N)c4)c3n2)C1`, which IC50 is on record?
**A.** Its IC50 is 25 to 200 nM.

**Q.** `CNC(=O)[C@]1(C)CC[C@@H](Nc2ncc3c(Br)nn(-c4ccc(-c5nnc(C(=O)N6CCOCC6)s5)cc4)c3n2)C1` [(1R,3R)-3-[[3-bromo-1-[4-[5-(morpholine-4-carbonyl)-1,3,4-thiadiazol-2-yl]phenyl]pyrazolo[3,4-d]pyrimidin-6-yl]amino]-N,1-dimethyl-cyclopentanecarboxamide] was tested. Which IC50 did it give?
**A.** The IC50 was 25 to 200 nM.

**Q.** Which IC50 does the source give for `Cc1nnc(-c2ccc(-n3nc(Br)c4cnc(NC5CCC(CN(C)C)(C(=O)O)C5)nc43)cc2)s1` (stereo not drawn) here?
**A.** Its IC50 is 25 to 200 nM.

**Q.** For `CNC(=O)C1(CC#N)CC[C@@H](Nc2ncc3c(Br)nn(-c4ccc(-c5nnc(C)s5)c(CCC#N)c4)c3n2)C1` (stereo partly drawn), which IC50 is on record?
**A.** The IC50 was 25 to 200 nM.

Reference: patent publication US11046699B2, “Pyrazolo-pyrimidin-amino-cycloalkyl compounds and their therapeutic uses” (RAPT THERAPEUTICS, INC., priority 2018, dated 2021)
